According to PMC9944867, “Mechanistic in vitro studies indicate that the clinical drug–drug interactions between protease inhibitors and rosuvastatin are driven by inhibition of intestinal BCRP and hepatic OATP1B1 with minimal contribution from OATP1B3, NTCP and OAT3” (Pharmacology Research & Perspectives, 2023):
Where two headings read alike, the source gives them in different places. Marks after values point to notes of the source that are not given here.

Columns and labels:
[1] = human, in vivo
[2] = molecular target: T1, human OATP1B3 (SLCO1B3) (Homo sapiens, UniProt Q9NPD5); settings: ≥10x [Iin max u]: atazanavir 50 μM, darunavir 15 μM, lopinavir 5 μM, ritonavir 0.3 μM; [3H]-estradiol 17β-D-glucuronide 0.02 μM
T1 sequence (Q9NPD5 1-702): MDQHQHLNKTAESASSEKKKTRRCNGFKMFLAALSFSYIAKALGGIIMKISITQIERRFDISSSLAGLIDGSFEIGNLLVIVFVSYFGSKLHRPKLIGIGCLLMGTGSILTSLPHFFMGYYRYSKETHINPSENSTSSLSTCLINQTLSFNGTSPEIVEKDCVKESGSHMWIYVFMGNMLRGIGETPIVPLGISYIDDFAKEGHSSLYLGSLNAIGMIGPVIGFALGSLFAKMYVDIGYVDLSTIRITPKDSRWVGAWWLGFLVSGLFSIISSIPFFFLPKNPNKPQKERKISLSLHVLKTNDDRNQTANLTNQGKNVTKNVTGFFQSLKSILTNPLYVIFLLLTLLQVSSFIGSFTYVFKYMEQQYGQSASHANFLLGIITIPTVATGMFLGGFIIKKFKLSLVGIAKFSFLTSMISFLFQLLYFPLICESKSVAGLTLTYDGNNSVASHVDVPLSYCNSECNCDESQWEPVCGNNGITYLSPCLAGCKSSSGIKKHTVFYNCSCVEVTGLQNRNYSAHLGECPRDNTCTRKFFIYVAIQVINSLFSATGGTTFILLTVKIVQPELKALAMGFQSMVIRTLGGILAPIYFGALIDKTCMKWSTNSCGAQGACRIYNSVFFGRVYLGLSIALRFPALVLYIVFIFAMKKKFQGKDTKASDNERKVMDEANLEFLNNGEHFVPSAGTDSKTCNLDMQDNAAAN

[3] = Pharmacokinetic parameters of protease inhibitors in clinical interaction studies with rosuvastatin; settings: calculated, clinical dose of Table 5
[4] = molecular target: T2, OATP1B1 (Homo sapiens, UniProt Q9Y6L6); assay: OATP1B1 inhibition in transporter-expressing HEK293 cells, [3H]-estradiol 17β-D-glucuronide uptake (IC50 determination); settings: human, HEK293 cells expressing OATP1B1 (with vector control cells), pH 7.4, probe [3H]-estradiol 17β-D-glucuronide (0.02 μM), IC50, determined values from different occasions (OATP1B1), OATP1B1-mediated transport of [3H]-estradiol 17β-D-glucuronide (0.02 μM), HEK293; single occasion
T2 sequence (Q9Y6L6 1-691): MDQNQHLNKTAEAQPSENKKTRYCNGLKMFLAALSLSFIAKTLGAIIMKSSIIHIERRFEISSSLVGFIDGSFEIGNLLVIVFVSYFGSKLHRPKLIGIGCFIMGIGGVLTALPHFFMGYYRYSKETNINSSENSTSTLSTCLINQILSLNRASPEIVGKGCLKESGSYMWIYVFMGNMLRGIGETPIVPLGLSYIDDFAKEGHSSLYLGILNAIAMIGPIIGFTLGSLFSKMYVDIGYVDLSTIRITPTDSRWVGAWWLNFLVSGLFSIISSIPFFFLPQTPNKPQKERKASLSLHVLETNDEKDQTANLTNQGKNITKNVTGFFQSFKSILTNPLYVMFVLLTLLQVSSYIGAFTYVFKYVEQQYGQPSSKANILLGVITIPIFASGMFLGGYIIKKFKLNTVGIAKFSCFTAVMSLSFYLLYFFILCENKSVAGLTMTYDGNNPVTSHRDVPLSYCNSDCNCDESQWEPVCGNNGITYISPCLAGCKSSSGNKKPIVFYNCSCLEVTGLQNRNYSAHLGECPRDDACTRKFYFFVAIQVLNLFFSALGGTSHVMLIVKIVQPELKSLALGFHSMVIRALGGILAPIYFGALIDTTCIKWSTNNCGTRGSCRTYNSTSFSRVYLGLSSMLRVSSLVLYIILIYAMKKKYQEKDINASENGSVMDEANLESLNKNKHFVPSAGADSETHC
Method: OATP1B1, OATP1B3, NTCP and vector control cell lines were cultured and subsequent transporter assays conducted as described above using the same transporter‐specific probe substrates and incubation times. For OATP1B1, the probe substrate was [^3H]‐estradiol 17β‐D‐glucuronide (0.02 μM) incubated for 2 min, with rifamycin SV (100 μM) as positive control inhibitor. For IC50 determinations, the only difference to the method performed above was that the 15‐min pre‐incubation step contained a range of six concentrations of protease inhibitor drug, and subsequent incubations were conducted with the same six concentration levels of drug rather than with a single concentration.

SMILES | [Ig] maximal enterocyte concentration [1] | [Iin max u] unbound maximum hepatic inlet concentration [1] [µM] | [Iin max] maximum hepatic inlet concentration [1] | Inhibition of OATP1B3-mediated probe substrate transport, single concentration screen [2] | [Ig] maximal enterocyte concentration ([3]; (FaFg × ka × dose)/Qent) [µM] | [Iin max u] unbound maximum hepatic inlet concentration [3] [µM] | [Iin max] maximum hepatic inlet concentration [3] [µM] | IC50 at 2 min [4] [nM]
Cc1cccc(C)c1OCC(=O)N[C@@H](Cc1ccccc1)[C@@H](O)C[C@H](Cc1ccccc1)NC(=O)[C@H](C(C)C)N1CCCNC1=O [lopinavir] | 42.4 ^d μM | 0.450 | 22.5 ^d μM |  |  |  |  | 
COC(=O)N[C@H](C(=O)N[C@@H](Cc1ccccc1)[C@@H](O)CN(Cc1ccc(-c2ccccn2)cc1)NC(=O)[C@@H](NC(=O)OC)C(C)(C)C)C(C)(C)C [atazanavir] |  |  |  | produced inhibition | 142 | 4.90 | 35.0 | 928
